Measured values reported in ChEMBL document CHEMBL1156502, “Stabilized immune modulatory RNA compounds as agonists of Toll-like receptors 7 and 8” (Proc Natl Acad Sci U S A, 2007).
Calls of active or inactive are those of the source. The rule behind the calls is not given here.

Tests used:
[1] = Stability in 1% human serum assessed as full length product after 10 mins; type: ADME, cell-free
[2] = biological target: T1, Toll-like receptor 8 (Homo sapiens) (UniProt Q9NR97); experiment: Activation of human TLR8 expressed in HEK293 cells assessed as increase in NF-kappaB activation at 100 ug/ml by SEAP assay; type: cell-based
T1 sequence (whole entry): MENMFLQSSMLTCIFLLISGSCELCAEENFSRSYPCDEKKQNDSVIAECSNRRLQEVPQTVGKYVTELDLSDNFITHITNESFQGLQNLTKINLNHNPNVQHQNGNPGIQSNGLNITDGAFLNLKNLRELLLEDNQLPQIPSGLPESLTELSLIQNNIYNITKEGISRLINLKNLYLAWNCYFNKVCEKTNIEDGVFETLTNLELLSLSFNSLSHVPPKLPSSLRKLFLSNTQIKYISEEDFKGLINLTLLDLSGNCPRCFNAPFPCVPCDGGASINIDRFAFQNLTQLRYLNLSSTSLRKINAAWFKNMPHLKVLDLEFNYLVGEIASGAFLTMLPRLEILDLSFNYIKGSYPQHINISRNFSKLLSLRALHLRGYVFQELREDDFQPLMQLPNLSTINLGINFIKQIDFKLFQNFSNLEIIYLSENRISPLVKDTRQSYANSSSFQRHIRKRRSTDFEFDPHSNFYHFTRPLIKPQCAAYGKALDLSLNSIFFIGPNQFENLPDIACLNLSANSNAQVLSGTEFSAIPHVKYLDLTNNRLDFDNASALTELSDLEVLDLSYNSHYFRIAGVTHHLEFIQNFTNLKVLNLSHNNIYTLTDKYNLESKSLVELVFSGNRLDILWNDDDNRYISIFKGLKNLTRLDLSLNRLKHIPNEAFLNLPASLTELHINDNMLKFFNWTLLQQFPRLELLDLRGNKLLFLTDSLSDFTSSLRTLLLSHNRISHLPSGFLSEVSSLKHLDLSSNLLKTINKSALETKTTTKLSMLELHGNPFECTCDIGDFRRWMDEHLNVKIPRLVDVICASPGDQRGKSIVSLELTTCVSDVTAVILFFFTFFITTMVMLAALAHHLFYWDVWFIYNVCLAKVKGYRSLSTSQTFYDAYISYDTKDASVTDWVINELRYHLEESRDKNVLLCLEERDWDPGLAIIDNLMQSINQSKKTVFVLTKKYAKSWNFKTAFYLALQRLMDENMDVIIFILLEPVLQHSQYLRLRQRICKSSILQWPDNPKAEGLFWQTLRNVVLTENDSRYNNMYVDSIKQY

[3] = biological target: T2, Toll-like receptor 7 (Homo sapiens) (UniProt Q9NYK1); experiment: Activation of human TLR7 expressed in HEK293 cells assessed as increase in NF-kappaB activation at 100 ug/ml by SEAP assay; type: cell-based
T2 sequence (whole entry): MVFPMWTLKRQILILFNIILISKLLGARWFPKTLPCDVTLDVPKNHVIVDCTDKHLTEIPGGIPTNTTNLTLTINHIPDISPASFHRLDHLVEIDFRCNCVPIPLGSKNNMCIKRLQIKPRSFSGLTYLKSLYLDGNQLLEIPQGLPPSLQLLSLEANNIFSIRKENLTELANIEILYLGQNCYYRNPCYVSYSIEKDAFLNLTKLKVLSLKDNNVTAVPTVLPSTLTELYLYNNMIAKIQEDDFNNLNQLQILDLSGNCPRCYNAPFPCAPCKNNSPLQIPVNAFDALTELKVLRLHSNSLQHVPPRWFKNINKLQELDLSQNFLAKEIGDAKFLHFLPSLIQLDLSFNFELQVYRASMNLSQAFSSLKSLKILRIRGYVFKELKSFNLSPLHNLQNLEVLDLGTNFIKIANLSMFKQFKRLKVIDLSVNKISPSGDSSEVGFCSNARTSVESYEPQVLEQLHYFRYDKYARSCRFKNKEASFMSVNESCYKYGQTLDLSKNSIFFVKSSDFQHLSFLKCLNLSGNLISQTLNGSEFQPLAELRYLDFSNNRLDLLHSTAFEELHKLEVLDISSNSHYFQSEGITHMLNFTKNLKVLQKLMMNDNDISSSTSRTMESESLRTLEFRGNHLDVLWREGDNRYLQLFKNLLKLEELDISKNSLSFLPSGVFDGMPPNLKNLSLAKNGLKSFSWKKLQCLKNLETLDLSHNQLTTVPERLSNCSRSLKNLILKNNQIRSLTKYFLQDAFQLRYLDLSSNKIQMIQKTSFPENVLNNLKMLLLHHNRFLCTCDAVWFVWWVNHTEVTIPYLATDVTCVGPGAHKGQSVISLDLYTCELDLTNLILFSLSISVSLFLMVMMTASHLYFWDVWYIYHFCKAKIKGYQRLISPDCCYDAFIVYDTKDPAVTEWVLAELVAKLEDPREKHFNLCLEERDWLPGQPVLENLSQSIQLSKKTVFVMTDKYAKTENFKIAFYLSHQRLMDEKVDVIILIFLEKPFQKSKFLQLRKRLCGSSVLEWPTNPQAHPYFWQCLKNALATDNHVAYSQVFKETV

| remaining at 10 min ([1]; read-out: Activity) [%] | Activity [2] | remaining at 10 min ([1]; read-out: Stability) [%] | Activity [3] | SMILES |
| --- | --- | --- | --- | --- |
| 79 | inactive | – | – | Nc1ccn([C@@H]2O[C@H](CO)[C@@H](OP(O)(=S)OC[C@H]3O[C@@H](n4ccc(=O)[nH]c4=O)[C@H](O)[C@@H]3OP(O)(=S)OC[C@H]3O[C@@H](n4ccc(=O)[nH]c4=O)[C@H](O)[C@@H]3OP(O)(=S)OC[C@H]3O[C@@H](n4ccc(=O)[nH]c4=O)[C@H](O)[C@@H]3OP(O)(=S)OC[C@H]3O[C@@H](n4cnc5c(=O)[nH]c(N)nc54)[C@H](O)[C@@H]3OP(O)(=S)OC[C@H]3O[C@@H](n4cnc5c(=O)[nH]c(N)nc54)[C@H](O)[C@@H]3OP(O)(=S)OC[C@H]3O[C@@H](n4ccc(=O)[nH]c4=O)[C@H](O)[C@@H]3OP(O)(=S)OC[C@H]3O[C@@H](n4cnc5c(=O)[nH]c(N)nc54)[C@H](O)[C@@H]3OP(O)(=S)OC[C@H]3O[C@@H](n4ccc(=O)[nH]c4=O)[C@H](O)[C@@H]3OP(O)(=S)OC[C@H]3O[C@@H](n4cnc5c(=O)[nH]c(N)nc54)[C@H](O)[C@@H]3OP(O)(=S)OC[C@H]3O[C@@H](n4ccc(=O)[nH]c4=O)[C@H](O)[C@@H]3OP(O)(=S)OCC(O)COP(O)(=S)O[C@H]3[C@@H](O)[C@H](n4ccc(=O)[nH]c4=O)O[C@@H]3COP(O)(=S)O[C@H]3[C@@H](O)[C@H](n4cnc5c(=O)[nH]c(N)nc54)O[C@@H]3COP(O)(=S)O[C@H]3[C@@H](O)[C@H](n4ccc(=O)[nH]c4=O)O[C@@H]3COP(O)(=S)O[C@H]3[C@@H](O)[C@H](n4cnc5c(=O)[nH]c(N)nc54)O[C@@H]3COP(O)(=S)O[C@H]3[C@@H](O)[C@H](n4ccc(=O)[nH]c4=O)O[C@@H]3COP(O)(=S)O[C@H]3[C@@H](O)[C@H](n4cnc5c(=O)[nH]c(N)nc54)O[C@@H]3COP(O)(=S)O[C@H]3[C@@H](O)[C@H](n4cnc5c(=O)[nH]c(N)nc54)O[C@@H]3COP(O)(=S)O[C@H]3[C@@H](O)[C@H](n4ccc(=O)[nH]c4=O)O[C@@H]3COP(O)(=S)O[C@H]3[C@@H](O)[C@H](n4ccc(=O)[nH]c4=O)O[C@@H]3COP(O)(=S)O[C@H]3[C@@H](O)[C@H](n4ccc(=O)[nH]c4=O)O[C@@H]3COP(O)(=S)O[C@H]3[C@@H](O)[C@H](n4ccc(N)nc4=O)O[C@@H]3CO)[C@H]2O)c(=O)n1 (stereo partly specified) |
| – | – | 1 | inactive | Nc1ccn([C@@H]2O[C@H](COP(O)(=S)O[C@H]3[C@@H](O)[C@H](n4ccc(N)nc4=O)O[C@@H]3COP(O)(=S)O[C@H]3[C@@H](O)[C@H](n4cnc5c(=O)[nH]c(N)nc54)O[C@@H]3COP(O)(=S)O[C@H]3[C@@H](O)[C@H](n4ccc(N)nc4=O)O[C@@H]3COP(O)(=S)O[C@H]3[C@@H](O)[C@H](n4ccc(=O)[nH]c4=O)O[C@@H]3COP(O)(=S)O[C@H]3[C@@H](O)[C@H](n4cnc5c(N)ncnc54)O[C@@H]3COP(O)(=S)O[C@H]3[C@@H](O)[C@H](n4ccc(N)nc4=O)O[C@@H]3COP(O)(=S)O[C@H]3[C@@H](O)[C@H](n4cnc5c(N)ncnc54)O[C@@H]3COP(O)(=S)O[C@H]3[C@@H](O)[C@H](n4cnc5c(=O)[nH]c(N)nc54)O[C@@H]3COP(O)(=S)O[C@H]3[C@@H](O)[C@H](n4cnc5c(N)ncnc54)O[C@@H]3COP(O)(=S)O[C@H]3[C@@H](O)[C@H](n4cnc5c(N)ncnc54)O[C@@H]3CO)[C@@H](OP(O)(=S)OC[C@H]3O[C@@H](n4ccc(=O)[nH]c4=O)[C@H](O)[C@@H]3OP(O)(=S)OC[C@H]3O[C@@H](n4cnc5c(=O)[nH]c(N)nc54)[C@H](O)[C@@H]3OP(O)(=S)OC[C@H]3O[C@@H](n4cnc5c(=O)[nH]c(N)nc54)[C@H](O)[C@@H]3OP(O)(=S)OC[C@H]3O[C@@H](n4ccc(=O)[nH]c4=O)[C@H](O)[C@@H]3OP(O)(=S)OC[C@H]3O[C@@H](n4ccc(=O)[nH]c4=O)[C@H](O)[C@@H]3OP(O)(=S)OC[C@H]3O[C@@H](n4cnc5c(N)ncnc54)[C@H](O)[C@@H]3O)[C@H]2O)c(=O)n1 (stereo partly specified) |
| – | – | 47 | inactive | Nc1ccn([C@@H]2O[C@H](COP(O)(=S)O[C@H]3[C@@H](O)[C@H](n4ccc(=O)[nH]c4=O)O[C@@H]3COP(O)(=S)O[C@H]3[C@@H](O)[C@H](n4ccc(N)nc4=O)O[C@@H]3COP(O)(=S)O[C@H]3[C@@H](O)[C@H](n4cnc5c(N)ncnc54)O[C@@H]3COP(O)(=S)O[C@H]3[C@@H](O)[C@H](n4cnc5c(=O)[nH]c(N)nc54)O[C@@H]3COP(O)(=S)O[C@H]3[C@@H](O)[C@H](n4ccc(=O)[nH]c4=O)O[C@@H]3COP(O)(=S)O[C@H]3[C@@H](O)[C@H](n4cnc5c(=O)[nH]c(N)nc54)O[C@@H]3COP(O)(=S)O[C@H]3[C@@H](O)[C@H](n4ccc(=O)[nH]c4=O)O[C@@H]3COP(O)(=S)O[C@H]3[C@@H](O)[C@H](n4cnc5c(=O)[nH]c(N)nc54)O[C@@H]3COP(O)(=S)O[C@H]3[C@@H](O)[C@H](n4ccc(=O)[nH]c4=O)O[C@@H]3COP(O)(=S)O[C@H]3[C@@H](O)[C@H](n4ccc(=O)[nH]c4=O)O[C@@H]3COP(O)(=S)O[C@H]3[C@@H](O)[C@H](n4cnc5c(=O)[nH]c(N)nc54)O[C@@H]3COP(O)(=S)O[C@H]3[C@@H](O)[C@H](n4ccc(=O)[nH]c4=O)O[C@@H]3COP(O)(=S)O[C@H]3[C@@H](O)[C@H](n4ccc(N)nc4=O)O[C@@H]3COP(O)(=S)O[C@H]3[C@@H](O)[C@H](n4ccc(=O)[nH]c4=O)O[C@@H]3COP(O)(=S)O[C@H]3[C@@H](O)[C@H](n4cnc5c(=O)[nH]c(N)nc54)O[C@@H]3COP(O)(=S)O[C@H]3[C@@H](O)[C@H](n4ccc(N)nc4=O)O[C@@H]3COP(O)(=S)O[C@H]3[C@@H](O)[C@H](n4ccc(N)nc4=O)O[C@@H]3COP(O)(=S)O[C@H]3[C@@H](O)[C@H](n4ccc(N)nc4=O)O[C@@H]3COP(O)(=S)O[C@H]3[C@@H](O)[C@H](n4cnc5c(=O)[nH]c(N)nc54)O[C@@H]3CO)[C@@H](O)[C@H]2O)c(=O)n1 (stereo partly specified) |
